From ChEMBL document CHEMBL5050849 (2020)

Target: Ubiquitin carboxyl-terminal hydrolase 9X (Homo sapiens, UniProt Q93008)
Test: Inhibition of USP9X (unknown origin) using Ubiquitin-Rhoadmine 110 as substrate preincubated for 30 mins followed by substrate addition and measured after 11 mins by fluorescence assay
Assay type: single protein

Ubiquitin carboxyl-terminal hydrolase 9X, sequence (Q93008 whole entry): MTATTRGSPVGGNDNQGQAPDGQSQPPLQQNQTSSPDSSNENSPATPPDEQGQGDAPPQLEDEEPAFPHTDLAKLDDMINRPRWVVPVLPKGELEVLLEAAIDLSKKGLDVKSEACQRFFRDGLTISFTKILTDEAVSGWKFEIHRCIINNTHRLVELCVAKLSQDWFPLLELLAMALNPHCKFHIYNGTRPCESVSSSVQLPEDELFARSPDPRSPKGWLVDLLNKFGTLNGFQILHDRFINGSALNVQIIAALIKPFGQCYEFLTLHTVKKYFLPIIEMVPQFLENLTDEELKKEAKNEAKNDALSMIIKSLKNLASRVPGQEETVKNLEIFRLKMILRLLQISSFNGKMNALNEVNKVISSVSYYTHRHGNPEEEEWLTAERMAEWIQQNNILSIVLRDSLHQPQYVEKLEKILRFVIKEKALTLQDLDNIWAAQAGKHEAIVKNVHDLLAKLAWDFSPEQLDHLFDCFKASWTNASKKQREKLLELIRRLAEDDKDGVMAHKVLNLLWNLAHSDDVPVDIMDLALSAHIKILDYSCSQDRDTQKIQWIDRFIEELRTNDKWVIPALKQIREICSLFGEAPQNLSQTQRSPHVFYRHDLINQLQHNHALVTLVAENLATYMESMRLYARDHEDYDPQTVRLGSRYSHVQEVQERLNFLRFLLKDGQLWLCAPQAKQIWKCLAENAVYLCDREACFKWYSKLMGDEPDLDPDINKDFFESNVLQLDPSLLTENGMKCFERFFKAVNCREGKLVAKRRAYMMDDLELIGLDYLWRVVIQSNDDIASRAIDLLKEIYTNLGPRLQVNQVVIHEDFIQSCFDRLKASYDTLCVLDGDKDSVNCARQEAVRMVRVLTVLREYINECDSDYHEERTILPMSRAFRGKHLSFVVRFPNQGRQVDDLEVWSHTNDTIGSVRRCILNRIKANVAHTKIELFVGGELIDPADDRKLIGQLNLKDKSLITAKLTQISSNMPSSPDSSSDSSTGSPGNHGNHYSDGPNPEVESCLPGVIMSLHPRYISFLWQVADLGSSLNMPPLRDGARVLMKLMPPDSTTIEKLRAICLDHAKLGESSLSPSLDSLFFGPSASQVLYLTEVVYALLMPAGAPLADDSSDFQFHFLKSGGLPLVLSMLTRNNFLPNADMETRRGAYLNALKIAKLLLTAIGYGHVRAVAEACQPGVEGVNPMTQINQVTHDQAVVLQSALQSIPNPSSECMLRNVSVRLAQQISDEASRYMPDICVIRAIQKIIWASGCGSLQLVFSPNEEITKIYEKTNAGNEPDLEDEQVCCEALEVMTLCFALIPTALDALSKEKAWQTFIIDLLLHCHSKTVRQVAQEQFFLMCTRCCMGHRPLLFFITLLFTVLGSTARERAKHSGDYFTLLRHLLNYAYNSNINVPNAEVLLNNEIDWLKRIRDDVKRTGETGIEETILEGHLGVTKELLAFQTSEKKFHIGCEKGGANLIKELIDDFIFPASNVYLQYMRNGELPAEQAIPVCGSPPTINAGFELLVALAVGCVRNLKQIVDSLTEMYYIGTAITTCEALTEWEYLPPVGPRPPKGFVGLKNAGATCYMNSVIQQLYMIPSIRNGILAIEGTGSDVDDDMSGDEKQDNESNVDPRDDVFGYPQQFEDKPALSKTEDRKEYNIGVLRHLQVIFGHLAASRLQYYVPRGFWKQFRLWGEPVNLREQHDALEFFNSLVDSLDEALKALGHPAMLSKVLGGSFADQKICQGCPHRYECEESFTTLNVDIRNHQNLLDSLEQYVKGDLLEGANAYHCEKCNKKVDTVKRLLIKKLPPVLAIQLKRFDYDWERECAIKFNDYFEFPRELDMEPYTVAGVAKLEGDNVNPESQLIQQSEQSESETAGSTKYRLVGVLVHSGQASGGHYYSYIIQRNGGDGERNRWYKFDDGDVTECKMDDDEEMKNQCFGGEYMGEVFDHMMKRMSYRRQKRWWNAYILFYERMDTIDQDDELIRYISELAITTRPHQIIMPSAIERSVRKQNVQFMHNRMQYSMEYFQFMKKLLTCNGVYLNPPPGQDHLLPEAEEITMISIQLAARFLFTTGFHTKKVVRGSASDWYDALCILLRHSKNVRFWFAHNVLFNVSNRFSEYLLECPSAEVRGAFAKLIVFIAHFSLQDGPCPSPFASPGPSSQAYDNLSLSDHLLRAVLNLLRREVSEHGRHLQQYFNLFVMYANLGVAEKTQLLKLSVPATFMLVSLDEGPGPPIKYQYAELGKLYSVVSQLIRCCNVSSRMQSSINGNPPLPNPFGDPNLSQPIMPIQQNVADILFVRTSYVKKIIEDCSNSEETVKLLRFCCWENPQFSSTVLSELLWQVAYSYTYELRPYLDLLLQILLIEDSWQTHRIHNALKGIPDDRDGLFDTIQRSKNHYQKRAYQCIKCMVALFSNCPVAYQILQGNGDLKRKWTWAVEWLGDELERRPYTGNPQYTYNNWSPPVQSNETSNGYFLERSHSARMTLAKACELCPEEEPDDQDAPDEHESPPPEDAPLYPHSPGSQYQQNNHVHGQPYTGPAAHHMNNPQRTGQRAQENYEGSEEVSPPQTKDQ

SMILES	IC50 [µM]
O=C([C@@H](O)c1ccccc1)N1CCc2c(cnn2S(=O)(=O)c2ccc3c(c2)OCCO3)C1	> 25
OC(c1ccccc1)c1cc2c(cn1)CN(Cc1ccc3c(c1)OCCO3)C2 (centres undefined)	> 25
O=S(=O)(C1CCN(c2ncco2)CC1)N1Cc2cnc(C(O)c3ccccc3)cc2C1 (centres undefined)	> 25
C[C@@H](c1ccccc1)N1Cc2cc(S(=O)(=O)c3ccc4c(c3)OCCO4)ccc2C1=O	> 25
O=S(=O)(c1ccccc1)c1cc2c(cn1)CN(S(=O)(=O)c1ccc(-c3ncco3)cc1)C2	> 25
O=S(=O)(c1ccc(-n2ccnc2)cc1)N1Cc2cnc(C(O)c3ccccc3)cc2C1 (centres undefined)	> 25
O=C(c1cccc(Cl)c1)c1cc2c(cn1)CN(S(=O)(=O)c1ccc3c(c1)OCCO3)C2	> 25
O=S(=O)(C1CCN(c2nccs2)CC1)N1Cc2cnc(C(O)c3ccccc3)cc2C1 (centres undefined)	> 25
COc1ccc(S(=O)(=O)N2CCc3nn(C(=O)[C@@H](O)c4ccccc4)cc3C2)cc1O	> 25
